{
  "source": "paper PMC9181887",
  "about": "“In Vitro Antithrombotic, Hematological Toxicity, and Inhibitor Studies of Protocatechuic, Isovanillic, and p-Hydroxybenzoic Acids from Maclura tricuspidata (Carr.) Bur” (Molecules, 2022)",
  "key": {"[1]": {"tested_on": "human platelet-poor plasma", "assay": "Recalcification time assay", "type": "biochemical", "conditions": "for Absorbance after Reaction: 650 nm after 30 min, NC2 0.2094 ± 0.0305; for Half Time at 1/2 Maximum: NC2 740 ± 20 s; for Fold of Half Time: NC2 = 1.00", "method": "Figure 5 Effect of PA (A), IVA (B), and 4-HA (C) on recalcification time and plasma density. Human platelet-poor plasma was mixed with PA, IVA, and 4-HA dissolved in DMSO in 96-well plates and incubated for 10 min at 37 °C. Thereafter, 100 mM pre-warmed CaCl2 was added to the mixture and absorbance was taken every 60 s at 650 nm for 30 min in a microplate reader. The plasma density was presented as the optical density at 650 nm after 30 min. The half time (s) was presented as reaching a half-maximum absorbance value. NC1, plasma only; NC2, plasma treated with CaCl2; PC, positive control group (1 U heparin); PA1–20, 1–20 μg of PA treated; IVA1–20, 1–20 μg of IVA treated; 4-HA1–20, 1–20 μg of 4-HA treated.\nRecalcification time was measured in a 96-well plate, according to a previously described method, with slight modifications. First, 50 μL of human platelet-poor plasma was mixed with 50 μL of the compounds, vehicle as NC2, or 1 U heparin as PC, and incubated at 37 °C for 10 min. Thereafter, 100 mM pre-warmed CaCl2 was added to the mixture and absorbance was measured at 650 nm every 1 min for 30 min using a microplate reader. The plasma density was presented as the absorbance at 650 nm after 30 min. The half time was presented as reaching a half-maximum absorbance value."}, "[2]": {"tested_on": "platelet aggregation/activation in whole blood", "assay": "PFA-100 platelet function assay, collagen/epinephrine cartridge", "type": "cell-based", "conditions": "for Closure time: control 118.6 ± 2.1 s", "method": "The effects of the compounds on platelet aggregation/activation and adherence in whole blood under conditions of high shear stress flow were evaluated using a collagen/epinephrine cartridge (Dade Behring, Marburg, Germany) and platelet function analyzer (PFA-100), as previously described. Blood samples were drawn from healthy donors using 3.8% (w/v) sodium citrate. Aliquots of whole blood were treated with different concentrations of compounds and incubated for 5 min at room temperature. Blood samples were added to a collagen/epinephrine cartridge, and the time required for occlusion of the aperture was measured using the analyzer and reported as the closure time. Saline-treated blood was used as a control."}, "[3]": {"target": "T1, human FXa (Homo sapiens, UniProt P00742)", "T1 construct": "purchased Sigma-Aldrich", "T1 sequence (P00742 235-488 limits assumed)": "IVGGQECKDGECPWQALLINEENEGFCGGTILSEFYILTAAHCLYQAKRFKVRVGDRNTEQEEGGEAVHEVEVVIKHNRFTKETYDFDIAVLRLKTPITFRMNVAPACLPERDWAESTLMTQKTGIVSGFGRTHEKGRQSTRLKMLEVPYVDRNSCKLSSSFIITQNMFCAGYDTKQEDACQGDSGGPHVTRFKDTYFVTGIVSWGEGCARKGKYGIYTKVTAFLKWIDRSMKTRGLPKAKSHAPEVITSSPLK", "T1 sequence (P00742 41-179 limits assumed)": "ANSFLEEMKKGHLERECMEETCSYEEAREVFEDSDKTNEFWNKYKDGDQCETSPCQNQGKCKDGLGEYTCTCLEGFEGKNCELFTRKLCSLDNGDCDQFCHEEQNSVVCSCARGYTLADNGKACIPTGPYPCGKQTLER", "assay": "FXa activity and kinetic/inhibitor assay", "type": "biochemical", "method": "(§1) To determine the thrombin activity, various concentrations of compounds were treated with 1 U human thrombin in 100 μL of 20 mM Tris-HCl, as previously described. The reaction solutions were incubated for 15 min at 37 °C. After the incubation, 1 mM chromogenic substrate for thrombin (S-2238, HD-Phe-Pip-Arg-p-nitroanilide) was added and incubated for 1 h at 37 °C. Absorbance was measured at 405 nm to determine the enzymatic activity. To determine FXa activity, various concentrations of the compounds were mixed with 1 U human FXa in 20 mM Tris-HCl (pH 7.4) in volume of 100 μL, followed by incubation for 15 min at 37 °C. After adding 1 mM N-benzoyl-Ile-Glu-Gly-Arg-p-nitroanilide, a highly specific chromogenic peptide substrate for FXa, the reaction solutions were incubated for 1 h at 37 °C. The residual activity of FXa was measured at 405 nm and is presented as a percentage of inhibition. To investigate FXIIIa activity, various concentrations of the compounds were mixed with 1 U human FXIIIa in 20 mM Tris-HCl (pH 7.4) in a volume of 100 μL, followed by, incubation for 15 min at 37 °C as previously described. The residual activity of FXIIIa was measured using casein and fibrinogen-HRP, according to the manufacturer’s instructions, and was presented as a percentage of inhibition. The negative control was generated by treatment with only thrombin, FXa, or FXIIIa without treatment with any compound.\n(§2) Kinetic assays were performed using PA, IVA, and 4-HA for procoagulant proteases (thrombin and FXa) and fibrinoligase (FXIIIa). The kinetic constants were calculated using Lineweaver–Burk plots based on the initial reaction rates with different concentrations (0.1, 0.5, 1, and 2 mM) of each substrate for thrombin, FXa, and FXIIIa treated with or without the compounds (0.065, 0.13, 0.33, 0.65, and 1.30 mM [1–20 μg]) in a total volume of 100 μL. The Michaelis–Menten constant (Km) and maximal velocity (Vmax) were calculated from the x and y intercepts, respectively. […] The median inhibitory concentration (IC50) was defined as the concentration required to reach a 50% reduction in the activity of the three target factors. The Kik and Kiv inhibition constants were calculated using a previously described method. The inhibition type of the compounds against the three target factors was evaluated according to a previously described inhibition type definition."}, "[4]": {"tested_on": "human plasma", "assay": "Coagulation assay, APTT", "type": "biochemical", "method": "A coagulation assay was performed to evaluate the prolongation potential of the compounds in blood coagulation by measuring APTT, PT, and TT, as previously described. After pretreatment of the compounds with human plasma for 10 min, APTT, PT, and TT were determined by a coagulometer (Thrombostat 1) manufactured by Behnk Elektronik, Germany."}, "[5]": {"target": "T2, human thrombin (Homo sapiens, UniProt P00734)", "T2 construct": "purchased Sigma-Aldrich", "assay": "Thrombin activity and kinetic/inhibitor assay", "type": "biochemical", "method": "as §1, §2"}, "[6]": {"conditions": "from Kik/Kiv ratio and Lineweaver–Burk plots"}, "[7]": {"conditions": "thrombin, compound 0.065 mM (1 μg)"}, "[8]": {"conditions": "thrombin, compound 0.13 mM (2 μg)"}, "[9]": {"conditions": "thrombin, compound 0.325 mM (5 μg)"}, "[10]": {"conditions": "thrombin, compound 0.65 mM (10 μg)"}, "[11]": {"conditions": "thrombin, compound 1.3 mM (20 μg)"}},
  "note": "Read-outs that look alike come from different tables or passages of the source.",
  "data": [
    {"smiles": "COc1ccc(C(=O)O)cc1O", "note": "[IVA, isovanillic acid]", "values": [
      {"measurement": "Absorbance after Reaction", "setting": "[1]; 1 μg", "value": "0.1882 ± 0.0097"},
      {"measurement": "Half Time at 1/2 Maximum", "setting": "[1]; 1 μg", "value": "510 ± 25", "unit": "s"},
      {"measurement": "Fold of Half Time", "setting": "[1]; 1 μg", "value": "0.69 ± 0.03"},
      {"measurement": "Absorbance after Reaction", "setting": "[1]; 2 μg", "value": "0.1732 ± 0.0106"},
      {"measurement": "Absorbance after Reaction", "setting": "[1]; 5 μg", "value": "0.1575 ± 0.0052"},
      {"measurement": "Half Time at 1/2 Maximum", "setting": "[1]; 5 μg", "value": "615 ± 20", "unit": "s"},
      {"measurement": "Fold of Half Time", "setting": "[1]; 5 μg", "value": "0.83 ± 0.03"},
      {"measurement": "Absorbance after Reaction", "setting": "[1]; 10 μg", "value": "0.1377 ± 0.0071"},
      {"measurement": "Half Time at 1/2 Maximum", "setting": "[1]; 10 μg", "value": "355 ± 30", "unit": "s"},
      {"measurement": "Fold of Half Time", "setting": "[1]; 10 μg", "value": "0.48 ± 0.04"},
      {"measurement": "Absorbance after Reaction", "setting": "[1]; 20 μg", "value": "0.0462 ± 0.0035"},
      {"measurement": "plasma coagulation time", "setting": "[1]; 1–20 μg", "value": "partially prolonged"},
      {"measurement": "final plasma density", "setting": "[1]; after 1800 s", "value": "significantly decreased"},
      {"measurement": "initial response of plasma coagulation (fold of half time)", "setting": "[1]; range over doses, promoted (shorter half time)", "value": "0.48–0.83 fold"},
      {"measurement": "Closure time", "setting": "[2]; 10 μg", "value": "118.5 ± 1.8", "unit": "s"},
      {"measurement": "Closure time", "setting": "[2]; 20 μg", "value": "119.7 ± 2.8", "unit": "s"},
      {"measurement": "Closure time", "setting": "[2]; 50 μg", "value": "123.5 ± 2.2", "unit": "s"},
      {"measurement": "Closure time, fold of control", "setting": "[2]; 100 μg", "value": 1.09, "unit": "fold"},
      {"measurement": "Closure time", "setting": "[2]; 100 μg", "value": "129.4 ± 3.4", "unit": "s"},
      {"measurement": "FXa activity", "setting": "[3]; 1–20 μg, vs control, p < 0.05", "value": "significant reductions"},
      {"measurement": "IC50", "setting": "[3]; FXa", "value": 4210, "unit": "µM"},
      {"measurement": "Kik/Kiv", "setting": "[3]; FXa", "value": 5.6},
      {"measurement": "Kcat", "setting": "[3]; FXa, compound 0.065 mM (1 μg)", "value": "24.20 ± 0.27", "unit": "s⁻¹"},
      {"measurement": "Vmax", "setting": "[3]; FXa, compound 0.065 mM (1 μg)", "value": "0.66 ± 0.04", "unit": "mU/min"},
      {"measurement": "Kcat", "setting": "[3]; FXa, compound 0.13 mM (2 μg)", "value": "22.34 ± 0.41", "unit": "s⁻¹"},
      {"measurement": "Vmax", "setting": "[3]; FXa, compound 0.13 mM (2 μg)", "value": "0.61 ± 0.02", "unit": "mU/min"},
      {"measurement": "Kcat", "setting": "[3]; FXa, compound 0.325 mM (5 μg)", "value": "22.23 ± 0.35", "unit": "s⁻¹"},
      {"measurement": "Vmax", "setting": "[3]; FXa, compound 0.325 mM (5 μg)", "value": "0.60 ± 0.03", "unit": "mU/min"},
      {"measurement": "Kcat", "setting": "[3]; FXa, compound 0.65 mM (10 μg)", "value": "20.67 ± 0.32", "unit": "s⁻¹"},
      {"measurement": "Vmax", "setting": "[3]; FXa, compound 0.65 mM (10 μg)", "value": "0.56 ± 0.03", "unit": "mU/min"},
      {"measurement": "Kcat", "setting": "[3]; FXa, compound 1.3 mM (20 μg)", "value": "18.56 ± 0.30", "unit": "s⁻¹"},
      {"measurement": "Vmax", "setting": "[3]; FXa, compound 1.3 mM (20 μg)", "value": "0.50 ± 0.04", "unit": "mU/min"},
      {"measurement": "Ki", "setting": "[3]; FXa, read-out: Ki", "value": 4190, "unit": "µM"},
      {"measurement": "Ki", "setting": "[3]; FXa, read-out: Kiv (inhibition constant using Vmax)", "value": 75, "unit": "µM"},
      {"measurement": "inhibition type against FXa", "setting": "[3]; [6]", "value": "non-competitive inhibition"},
      {"measurement": "APTT, dependence on concentration", "setting": "[4]", "value": "increased APTT in a concentration-dependent manner"},
      {"measurement": "APTT, fold of control", "setting": "[4]; 100 μg", "value": 1.70, "unit": "fold"},
      {"measurement": "activated partial thromboplastin time (APTT)", "setting": "[4]; 100 μg, control 39.5 ± 1.5 s, p < 0.01", "value": "67.0 ± 4.0", "unit": "s"},
      {"measurement": "inhibition type against thrombin", "setting": "[5]; [6]", "value": "uncompetitive inhibition type"},
      {"measurement": "activity of thrombin", "setting": "[5]; highest concentration of each compound, p < 0.01", "value": "significantly decreased"},
      {"measurement": "IC50", "setting": "[5]; thrombin", "value": 925, "unit": "µM"},
      {"measurement": "Ki", "setting": "[5]; thrombin", "value": 923, "unit": "µM"},
      {"measurement": "Kik/Kiv", "setting": "[5]; thrombin", "value": 1.1},
      {"measurement": "Kcat", "setting": "[5]; [7]", "value": "87.72 ± 1.32", "unit": "s⁻¹"},
      {"measurement": "Vmax", "setting": "[5]; [7]", "value": "0.304 ± 0.013", "unit": "mU/min"},
      {"measurement": "Kcat", "setting": "[5]; [8]", "value": "94.13 ± 2.08", "unit": "s⁻¹"},
      {"measurement": "Vmax", "setting": "[5]; [8]", "value": "0.326 ± 0.018", "unit": "mU/min"},
      {"measurement": "Kcat", "setting": "[5]; [9]", "value": "67.14 ± 0.93", "unit": "s⁻¹"},
      {"measurement": "Vmax", "setting": "[5]; [9]", "value": "0.233 ± 0.010", "unit": "mU/min"},
      {"measurement": "Kcat", "setting": "[5]; [10]", "value": "54.42 ± 0.81", "unit": "s⁻¹"},
      {"measurement": "Vmax", "setting": "[5]; [10]", "value": "0.189 ± 0.007", "unit": "mU/min"},
      {"measurement": "Kcat", "setting": "[5]; [11]", "value": "48.31 ± 1.05", "unit": "s⁻¹"},
      {"measurement": "Vmax", "setting": "[5]; [11]", "value": "0.167 ± 0.008", "unit": "mU/min"},
      {"measurement": "Vmax value of thrombin decreased by, fold of non-treated", "setting": "[5]; vs non-treated 0.381 ± 0.011 mU/min, compound 0.065–1.3 mM", "value": "0.44–0.86 fold"},
      {"measurement": "Km value of thrombin reduced by, fold of non-treated", "setting": "[5]; vs non-treated 0.566 ± 0.025 mM, compound 0.065–1.3 mM", "value": "0.52–0.93 fold"},
      {"measurement": "Kcat values of thrombin reduced by, fold of non-treated", "setting": "[5]; vs non-treated 109.87 ± 3.16 s^−1, compound 0.065–1.3 mM", "value": "0.43–0.86 fold"}
    ]}
  ]
}
